Source: PMC3545233 (Scientific Reports, 2013)
Where two headings read alike, the source gives them in different places.

How the values were obtained:
recombinant hAChE = recombinant hAChE (Homo sapiens, UniProt P22303); assay: Time-course and dilution experiments of AChE inhibition; type: biochemical
recombinant agAP-AChE [1] = target: T1, recombinant agAP-AChE (Anopheles gambiae, UniProt Q869C3); assay: as above; type: biochemical, Anopheles gambiae sensu stricto; conditions: for inhibition at 50 µM: read-out: inhibition of the enzyme activity, agAP-AChE, 50 μM NEM
T1 sequence (Q869C3 39-737): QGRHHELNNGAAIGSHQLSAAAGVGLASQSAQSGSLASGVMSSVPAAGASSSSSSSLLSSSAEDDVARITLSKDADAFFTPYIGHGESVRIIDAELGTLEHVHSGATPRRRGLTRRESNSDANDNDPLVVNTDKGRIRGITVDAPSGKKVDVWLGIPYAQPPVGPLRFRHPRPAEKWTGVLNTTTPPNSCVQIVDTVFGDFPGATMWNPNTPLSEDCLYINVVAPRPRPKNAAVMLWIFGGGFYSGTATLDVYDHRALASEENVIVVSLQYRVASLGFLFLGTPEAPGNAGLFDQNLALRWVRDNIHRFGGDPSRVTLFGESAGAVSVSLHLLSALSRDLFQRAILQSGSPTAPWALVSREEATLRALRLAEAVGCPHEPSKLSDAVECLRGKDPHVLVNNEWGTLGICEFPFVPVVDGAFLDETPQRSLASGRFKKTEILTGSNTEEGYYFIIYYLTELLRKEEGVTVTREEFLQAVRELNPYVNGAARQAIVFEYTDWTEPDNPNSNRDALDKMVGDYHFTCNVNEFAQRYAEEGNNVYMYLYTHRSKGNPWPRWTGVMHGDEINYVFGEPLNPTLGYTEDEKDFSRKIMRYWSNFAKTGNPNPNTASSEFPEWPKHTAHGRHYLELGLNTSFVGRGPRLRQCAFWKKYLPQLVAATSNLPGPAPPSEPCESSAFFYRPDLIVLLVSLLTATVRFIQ

recombinant agAP-AChE [2] = target: T1, recombinant agAP-AChE; type: biochemical, Anopheles gambiae sensu stricto; conditions: ≤15 min, paraoxon 333–2000 nM
recombinant agAP-AChE [3] = target: T1, recombinant agAP-AChE; assay: biochemical; set-up: species or system Anopheles gambiae sensu stricto

Sequence of recombinant hAChE (P22303 32-614): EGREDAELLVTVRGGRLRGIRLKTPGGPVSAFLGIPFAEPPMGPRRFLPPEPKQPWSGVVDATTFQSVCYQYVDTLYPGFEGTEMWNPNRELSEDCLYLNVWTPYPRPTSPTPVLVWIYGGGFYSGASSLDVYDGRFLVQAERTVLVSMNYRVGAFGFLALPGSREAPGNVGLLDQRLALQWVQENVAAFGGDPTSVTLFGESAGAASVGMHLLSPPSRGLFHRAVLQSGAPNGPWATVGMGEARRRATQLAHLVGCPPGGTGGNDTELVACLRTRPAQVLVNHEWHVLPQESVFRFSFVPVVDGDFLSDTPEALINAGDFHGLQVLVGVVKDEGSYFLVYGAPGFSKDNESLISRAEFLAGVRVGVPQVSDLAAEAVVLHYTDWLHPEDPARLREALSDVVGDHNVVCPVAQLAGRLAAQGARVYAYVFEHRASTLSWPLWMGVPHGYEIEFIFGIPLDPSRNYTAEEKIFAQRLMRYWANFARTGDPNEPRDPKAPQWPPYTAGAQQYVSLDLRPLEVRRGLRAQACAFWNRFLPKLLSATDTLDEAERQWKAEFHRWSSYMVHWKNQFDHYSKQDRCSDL

SMILES	irreversible inhibition (time-course and dilution experiments) (recombinant agAP-AChE [1]; agAP-AChE)	irreversible inhibition (time-course and dilution experiments) (recombinant hAChE)	Ki (recombinant agAP-AChE [3])	also measured
CCN1C(=O)CCC1=O [1-ethylpyrrolidine-2,5-dione, reference compound]	–	–	–	irreversible or reversible inhibition (recombinant hAChE; inhibitor concentrations up to 10 mM, data not shown): did not irreversibly or reversibly inhibit; irreversible or reversible inhibition (recombinant agAP-AChE [1]; agAP-AChE, inhibitor concentrations up to 10 mM, data not shown): did not irreversibly or reversibly inhibit
CCN1C(=O)C=CC1=O [NEM, N-ethylmaleimide, reference compound]	inability of NEM to irreversibly inhibit agAP-AChE	–	–	inhibition at 50 µM (recombinant agAP-AChE [1]; 30 minutes): 40 ± 1%; inhibition at 50 µM (recombinant agAP-AChE [1]; immediately): 36 ± 2%
O=C1C=CC(=O)N1CCCCCCCCCCCCCCCCCCCC[n+]1ccccc1.[Br-] [PM20, 1-(20-(2,5-Dioxo-2,5-dihydro-1H-pyrrol-1-yl)eicosyl)pyridinium bromide]	irreversibly inhibited agAP-AChE	not hAChE	400 nM	kinact/KI fold higher than that of paraoxon (recombinant agAP-AChE [2]): 239 fold; decrease of the enzyme activity (recombinant agAP-AChE [1]; agAP-AChE, combination of 50 μM NEM and 6.7 nM PM20 for 30 minutes): 94 ± 3%; inhibition at 0.0067 µM (recombinant agAP-AChE [1]; read-out: enzyme activity inhibited, agAP-AChE, incubated with 50 μM NEM, then treated with 6.7 nM PM20 for 30 minutes): 96 ± 4%
O=C([O-])C(F)(F)F.O=C1CCC(=O)N1CCCCCCCCCCCCCCCCCCCC[n+]1ccccc1 [PMS20, 1-(20-(2,5-Dioxopyrrolidin-1-yl)eicosyl)pyridin-1-ium 2,2,2-trifluoroacetate]	irreversibly inhibited neither	irreversibly inhibited neither	420 nM	–
Cl.O=C1C=CC(=O)N1CCCCCCCCCCCCCCCCCCN1CCCCC1 [PY18, 1-(18-(Piperidin-1-yl)octadecyl)-1H-pyrrole-2,5-dione hydrochloride]	irreversibly inhibited agAP-AChE	not hAChE	–	–
Cl.O=C1CCC(=O)N1CCCCCCCCCCCCCCCCCCN1CCCCC1 [PYS18, 1-(18-(Piperidin-1-yl)octadecyl)pyrrolidine-2,5-dione hydrochloride]	irreversibly inhibited neither	irreversibly inhibited neither	26200 nM	–
CCOP(=O)(OCC)Oc1ccc([N+](=O)[O-])cc1 [Paraoxon, paraoxon, reference compound]	irreversibly inhibited both enzymes	irreversibly inhibited both enzymes	–	–
